System: coronary artery smooth muscle cells+(IL-1p, TNFα and IFNγ)
Experiment: BioMAP CASM3C system
Format: cell-based, human
Details: Th1 vascular smooth muscle inflammation; concentrations of FIGS. 12-14
Text: The BioMAP systems consist of human primary cell-based systems designed to model different aspects of the human body in an in vitro format. The 12 systems tested characterized the test compounds across a broad set of systems modeling various human disease states. BioMAP systems were constructed with one or more primary cell types from healthy human donors, with stimuli (such as cytokines or growth factors) added to capture relevant signaling networks that naturally occur in human tissue or pathological conditions. […] Soluble factors from supernatants were quantified using either HTRF® detection, bead-based multiplex immunoassay or capture ELISA. Overt adverse effects of test agents on cell proliferation and viability (cytotoxicity) were detected by sulforhodamine B (SRB) staining, for adherent cells, and alamarBlue® reduction for cells in suspension. […] Each tested compound generated a signature BioMAP profile that was created from the changes in protein biomarker readouts within individual system environments. […] Each readout was measured quantitatively by immune-based methods that detected protein (e.g., ELISA) or functional assays that measured proliferation and viability. BioMAP readouts were diverse and included cell surface receptors, cytokines, chemokines, matrix molecules and enzymes. […]

| Structure (SMILES) | Inhibition of biomarker readouts in the CASM3C system |
| --- | --- |
| CC[C@@H]1[C@H](F)C(=O)N[C@@H]1COc1nccc2cc(C(N)=O)c(OC)cc12 [PF-06650833, 1-(((2S,3S,4S)-3-Ethyl-4-fluoro-5-oxopyrrolidin-2-yl)methoxy)-7-methoxyisoquinoline-6-carboxamide] | IL-6 |
| C[C@@H]1CCN(C(=O)CC#N)C[C@@H]1N(C)c1ncnc2[nH]ccc12 [tofacitinib, 3-((3R,4R)-4-Methyl-3-(methyl(7H-pyrrolo[2,3-d]pyrimidin-4-yl)amino)piperidin-1-yl)-3-oxopropanenitrile] | MIG |
